Experimental data published in US8741812B2, “Class of sterol ligands and their uses in regulation of cholesterol and gene expression” (New York University, priority 2004, dated 2014).
Where two headings read alike, the source gives them in different places.

Legend:
LXRα = target: T1, LXRα (Homo sapiens, UniProt Q13133); conditions: cited from earlier work
T1 sequence (Q13133 1-447): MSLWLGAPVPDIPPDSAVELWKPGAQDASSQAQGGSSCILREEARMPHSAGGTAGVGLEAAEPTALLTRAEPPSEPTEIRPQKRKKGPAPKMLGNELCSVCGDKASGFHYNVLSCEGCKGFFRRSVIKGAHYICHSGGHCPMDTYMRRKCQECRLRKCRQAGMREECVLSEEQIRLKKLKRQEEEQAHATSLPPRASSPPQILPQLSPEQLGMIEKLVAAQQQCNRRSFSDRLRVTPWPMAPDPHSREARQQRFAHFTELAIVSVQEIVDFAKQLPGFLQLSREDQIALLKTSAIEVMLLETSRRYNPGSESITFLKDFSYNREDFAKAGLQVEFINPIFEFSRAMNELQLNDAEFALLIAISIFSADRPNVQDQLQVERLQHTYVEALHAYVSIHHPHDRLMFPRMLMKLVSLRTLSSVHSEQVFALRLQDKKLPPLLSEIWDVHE

[1] = target: T2, Recombinant human P450 27A1 (Homo sapiens, UniProt Q02318); assay: P450 27A1 enzyme incubation: rate of 27-diol formation (GLC-MS); type: biochemical; conditions: for Substrate for the enzyme CYP 27A1: human enzyme expressed in E. Coli; for Synthesis rate of the 27-diol metabolite: 25 nmol substrate, 37° C.; for Total 27-diol metabolite: total over 10 min
T2 construct: made in house; host or cells: E. coli
From the text: (§1) Recombinant human P450 27A1, recombinant bovine adrenodoxin (Adx), and recombinant bovine adrenodoxin reductase (Adr) were expressed and purified as described previously (7). P450 27A1 with a heme content of 17.6 nmol/mg protein and showing a single band upon silver-stained SDS-polyacrylamide gel electrophoresis, and Adr and Adx with the spectral purity indexes of 7.5 (A278/A450) and 0.95 (A414/A276), respectively, were used for enzymatic assays. Adr and Adx are considered to be pure with the spectral purity indexes beginning from 7.5 for Adr and 0.86 for Adx (8).
(§2) P450 27A1 activities using cholesterol, desmosterol, zymosterol, lanosterol, or […] as the substrate were assayed in 40 mM phosphate buffer, pH 7.4. Stock solutions (10 mM) of cholesterol, desmosterol, zymosterol, and […] were prepared using 45% aqueous solution of 2-hydroxypropyl-β-cyclodextrin. Reaction mixtures (1 ml) contained 0.065 nmol of P450 27A1, 0.33 nmol of Adr, 1.3 nmol of Adx, and 25 nmol of substrate, Lanosterol was dissolved in methyl-β-cyclodextrin (Sigma, St. Louis, Mo.) and the reaction mixture contained 25 nmol substrate, 0.3 nmol enzyme, 1.5 nmol Adr and 6.5 nmol Adx. Enzymatic assays, initiated by addition of 1 μmol of NADPH, were carried out at 37° C. for different time intervals, and were terminated by adding 1 ml of either CH2Cl2 or CH2Cl2 that contained coprostanol. After extraction, the steroid were taken to dryness. In some studies deuterated 27-hydroxycholesterol (9) was used as an internal standard.
(§3) For zymosterol and desmosterol, the rate of diol formation was determined at 2.5, 5.0, and 10 min by removing aliquots and adding deuterated 27-hydroxycholesterol as an internal standard. The m/z 454 area was then compared with the m/z=462 area at each time interval. Because authentic standards are not available for constructing standard curves, it was assumed that the area/mass ratios for deuterated 27-hydroxycholesterol, zymosterol and desmosterol were equal. A second approach was to quantify the rate of disappearance of substrate using coprostanol added at the end of the incubation period. In all studies a parallel incubation with the omission of adrenodoxin reductase served as a control.
(§4) The trimethylsilyl ethers were prepared using MSTFA, (Pierce, Rockford, Ill.). Methyl esters were prepared using freshly distilled diazomethane. GLC-MS analyses were done on a Shimidzu GLC 17A instrument attached to a Model 5000 mass detector. Samples were injected in the split-mode onto a ZB-1701, 30 m×0.25 mm×0.15 μm capillary column (Phenomenex, Torrance, Calif.) and temperature programming at 1° C. beginning at 240° C.

HMG CoA reductase = target: T3, HMG CoA reductase (Homo sapiens, UniProt P04035); assay: Ubiquitination of reductase in a permeabilized cell system; type: cell-based; conditions: permeabilized cells; data not shown
T3 sequence (P04035 1-888): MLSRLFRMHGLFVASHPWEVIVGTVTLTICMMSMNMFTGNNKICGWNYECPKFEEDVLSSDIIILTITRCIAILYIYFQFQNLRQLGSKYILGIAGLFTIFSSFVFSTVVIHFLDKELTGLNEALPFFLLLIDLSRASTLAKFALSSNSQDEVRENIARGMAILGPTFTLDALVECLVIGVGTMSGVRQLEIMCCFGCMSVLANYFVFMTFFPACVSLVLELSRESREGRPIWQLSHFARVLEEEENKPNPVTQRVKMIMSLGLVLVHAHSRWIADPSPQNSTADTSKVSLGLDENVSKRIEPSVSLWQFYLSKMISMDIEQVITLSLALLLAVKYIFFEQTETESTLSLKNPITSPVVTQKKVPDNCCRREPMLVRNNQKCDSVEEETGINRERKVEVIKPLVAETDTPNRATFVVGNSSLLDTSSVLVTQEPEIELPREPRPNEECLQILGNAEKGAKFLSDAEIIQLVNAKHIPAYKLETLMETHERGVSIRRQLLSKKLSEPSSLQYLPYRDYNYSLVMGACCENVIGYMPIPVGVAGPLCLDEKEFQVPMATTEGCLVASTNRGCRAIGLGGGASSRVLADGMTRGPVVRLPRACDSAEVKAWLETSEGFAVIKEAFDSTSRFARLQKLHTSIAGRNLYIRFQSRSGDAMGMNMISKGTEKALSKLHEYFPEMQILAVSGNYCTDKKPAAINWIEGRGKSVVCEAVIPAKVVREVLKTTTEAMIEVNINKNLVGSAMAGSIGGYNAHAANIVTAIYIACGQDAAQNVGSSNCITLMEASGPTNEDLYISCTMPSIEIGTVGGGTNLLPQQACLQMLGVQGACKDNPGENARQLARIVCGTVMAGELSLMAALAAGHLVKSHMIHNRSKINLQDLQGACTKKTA
Description: It was determined whether intermediates in cholesterol synthesis promote ubiquitination of reductase in a permeabilized cell system. […] The methyl and side chain hydroxyl groups of 27-hydroxylanosterol appear to act synergistically in promoting reductase ubiquitination.

LXRβ = target: T4, LXRβ (Homo sapiens, UniProt P55055); conditions: cited from earlier work
T4 sequence (P55055 1-460): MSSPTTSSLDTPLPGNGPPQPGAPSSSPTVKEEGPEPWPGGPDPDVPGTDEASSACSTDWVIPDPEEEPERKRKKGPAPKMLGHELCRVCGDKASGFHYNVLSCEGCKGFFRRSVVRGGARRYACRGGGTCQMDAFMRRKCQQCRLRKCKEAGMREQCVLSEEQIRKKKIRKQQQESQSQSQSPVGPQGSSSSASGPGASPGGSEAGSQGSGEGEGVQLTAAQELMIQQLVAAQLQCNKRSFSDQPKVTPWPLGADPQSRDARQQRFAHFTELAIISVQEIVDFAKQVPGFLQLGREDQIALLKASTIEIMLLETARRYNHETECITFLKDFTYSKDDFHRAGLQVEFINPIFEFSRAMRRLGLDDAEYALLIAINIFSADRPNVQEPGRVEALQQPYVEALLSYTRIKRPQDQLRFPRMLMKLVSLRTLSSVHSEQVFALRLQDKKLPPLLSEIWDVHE

[2] = target: T2, Recombinant human P450 27A1; assay: P450 27A1 enzyme incubation: disappearance of substrate, coprostanol internal standard; type: biochemical
From the text: as §1, §2, §3, §4
TABLE 3 indicates the percent of zymosterol, desmosterol, and lanosterol that was metabolized compared with that of cholesterol and 7-dehydrocholesterol using coprostanol (m/z=370) as an internal standard and (−) adrenodoxin reductase as a control.

[3] = tested on: human retinal pigment epithelial cells (ARPE19); type: cell-based
From the text: We undertook to determine the effect of 27-hydroxylation of 7-ketocholesterol on the cytotoxic effect of 7-ketocholesterol. To test the general hypothesis that 27-hydroxylation of steroids markedly alters their biologic activity, the 27-hydroxy derivative of 7-ketocholesterol was synthesized from 27-hydrocholesterol using modifications of a previously published method (11). Its biologic effects on human retinal pigment epithelial cells (ARPE19) was compared to that of 7-ketocholesterol.
By contrast, retinal pigment epithelial cells maintained in the presence of 27-hydroxy-7-ketocholesterol had only a 10% reduction in viability compared to control.

[4] = Adrenodoxin reductase (−) control incubation, 20 min
[5] = Adrenodoxin reductase +, 20 min
[6] = disappearance of substrate at 20 min versus incubation without adrenodoxin reductase

T2 sequence (Q02318 34-531): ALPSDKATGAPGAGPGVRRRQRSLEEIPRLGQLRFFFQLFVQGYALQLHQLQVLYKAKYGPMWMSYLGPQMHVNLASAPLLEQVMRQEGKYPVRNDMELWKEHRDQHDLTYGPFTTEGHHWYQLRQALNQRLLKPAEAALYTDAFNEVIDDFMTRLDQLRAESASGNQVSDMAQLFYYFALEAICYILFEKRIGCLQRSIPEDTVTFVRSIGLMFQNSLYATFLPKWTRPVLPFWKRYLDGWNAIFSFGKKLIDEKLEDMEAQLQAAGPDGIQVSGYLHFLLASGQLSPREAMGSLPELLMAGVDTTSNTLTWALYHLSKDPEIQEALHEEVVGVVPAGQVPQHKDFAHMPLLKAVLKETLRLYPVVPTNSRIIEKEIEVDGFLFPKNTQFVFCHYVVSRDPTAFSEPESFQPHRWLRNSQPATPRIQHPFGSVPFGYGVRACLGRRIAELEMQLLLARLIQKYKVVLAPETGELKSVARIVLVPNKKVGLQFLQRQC

Compound | Stimulation of ubiquitination of reductase (HMG CoA reductase) | Synthesis rate of the 27-diol metabolite ([1]; 0-2.5 min) | Synthesis rate of the 27-diol metabolite ([1]; 2.5-5.0 min) | Synthesis rate of the 27-diol metabolite ([1]; 5.0-10 min) | Total 27-diol metabolite [1] | other results
CC(CO)CCC[C@@H](C)[C@H]1CC[C@H]2C3=CC=C4C[C@@H](O)CC[C@]4(C)[C@H]3CC[C@]12C (some centres unmarked) [27-hydroxy-7-dehydrocholesterol] | – | – | – | – | – | Expression of the nuclear receptor LXRα (LXRα): specifically upregulate
CC(C)=CCC[C@@H](C)[C@H]1CC[C@@]2(C)C3=C(CC[C@]12C)[C@@]1(C)CC[C@H](O)C(C)(C)[C@@H]1CC3 [Lanosterol] | potently stimulate ubiquitination of reductase | – | – | – | – | Substrate for the enzyme CYP 27A1 [1]: substrates for the enzyme
CC(CO)CCC[C@@H](C)[C@H]1CC[C@H]2[C@@H]3CC=C4C[C@@H](O)CC[C@]4(C)[C@H]3CC[C@]12C (some centres unmarked) [27-hydroxycholesterol] | stimulated ubiquitination of reductase | – | – | – | – | Expression of the nuclear receptor LXRβ (LXRβ): upregulates; Expression of the nuclear receptor LXRα (LXRα): upregulates
CC(C)CCC[C@@H](C)[C@H]1CC[C@H]2C3=CC=C4C[C@@H](O)CC[C@]4(C)[C@H]3CC[C@]12C [7-Dehydrocholesterol] | – | 24 ng/min | 54 ng/min | 11 ng/min | 107 ng/10 min | Sterol/int std ratio [2, 4]: 0.95; Sterol/int std ratio [2, 5]: 0.65; Percent metabolized [2, 6]: 32%
C[C@H](CCCC(C)(C)O)[C@H]1CC[C@H]2[C@@H]3C(=O)C=C4C[C@@H](O)CC[C@]4(C)[C@H]3CC[C@]12C [7-keto-25-hydroxycholesterol] | stimulated ubiquitination of reductase | – | – | – | – | –
CC(C)CCC[C@@H](C)[C@H]1CC[C@H]2[C@@H]3CC=C4C[C@@H](O)CC[C@]4(C)[C@H]3CC[C@]12C [Cholesterol] | not | 80 ng/min | 75 ng/min | 53 ng/min | 534 ng/10 min | Percent metabolized ([2]; human, 20 min, 25 µM, pH 7.4): 22%
CC(C)CCC[C@@H](C)[C@H]1CC[C@H]2[C@@H]3C(=O)C=C4C[C@@H](O)CC[C@]4(C)[C@H]3CC[C@]12C [7-ketocholesterol] | – | – | – | – | – | Viability of retinal pigment epithelial cells ([3]; 25 μmolar): 68%; Viability of retinal pigment epithelial cells ([3]; 50 μmolar): 20%
CC(=CCCC(C)C1CCC2(C)C3=C(CCC12C)C1(C)CCC(O)C(C)(C)C1CC3)CO (centres unmarked) [27-hydroxylanosterol] | strongly stimulated reductase ubiquitination | – | – | – | – | Concentration giving approximately equivalent levels of reductase ubiquitination as 25 μM lanosterol (HMG CoA reductase): 2.5 µM
CC(C)=CCC[C@@H](C)[C@H]1CC[C@H]2[C@@H]3CC=C4C[C@@H](O)CC[C@]4(C)[C@H]3CC[C@]12C [Desmosterol] | – | 3 ng/min | 8 ng/min | 9 ng/min | 85 ng/10 min | Sterol/int std ratio [2, 4]: 0.12; Sterol/int std ratio [2, 5]: 0.09; Percent metabolized [2, 6]: 25%; Substrate for the enzyme CYP 27A1 [1]: substrates for the enzyme
CC(C)=CCC[C@@H](C)[C@H]1CC[C@H]2C3=C(CC[C@]12C)[C@@]1(C)CC[C@H](O)C[C@@H]1CC3 [Zymosterol] | – | 9 ng/min | 14 ng/min | 10 ng/min | 97 ng/10 min | Substrate for the enzyme CYP 27A1 [1]: substrates for the enzyme
C[C@H](CCCC(C)(C)O)[C@H]1CC[C@H]2[C@@H]3CC=C4C[C@@H](O)CC[C@]4(C)[C@H]3CC[C@]12C [25-hydroxycholesterol] | stimulated ubiquitination of reductase | – | – | – | – | –
